# Measured values: patent publication US11180504B2 (ORCHID PHARMA LTD., priority 2016, dated 2021)
# Where two headings read alike, the source gives them in different places.
# Experiments:
# [1] = system: carbapenem sensitive Pseudomonas aeruginosa; test: MIC by broth micro-dilution (CLSI), carbapenem sensitive P. aeruginosa; assay type: cell-based
# [2] = system: carbapenem sensitive Escherichia coli; test: MIC by broth micro-dilution (CLSI), carbapenem sensitive E. coli; assay type: cell-based
# [3] = system: carbapenemase producing K. pneumoniae; test: MIC by broth micro-dilution (CLSI), carbapenemase producing K. pneumoniae; assay type: cell-based, Klebsiella pneumoniae
# [4] = system: methicillin-sensitive Staphylococcus aureus; test: MIC by broth micro-dilution (CLSI), methicillin-sensitive S. aureus; assay type: cell-based; conditions: MSSA S. aureus ATCC29213
# [5] = Pseudomonas aeruginosa, ATCC27853, Meropenem susceptible P. aeruginosa ATCC27853, read-out: MIC
# [6] = Escherichia coli, ATCC25922, ESBL −ve E. coli ATCC25922, read-out: MIC
# [7] = Klebsiella pneumoniae, ATCCBAA1705, KPC-2 K. pneumoniae ATCC BAA-1705, read-out: MIC
# [8] = Staphylococcus aureus, ATCC 29213 / MSSA, read-out: MIC
# [9] = Meropenem susceptible P. aeruginosa ATCC27853
# [10] = KPC-2 K. pneumoniae ATCC BAA-1705
SMILES,"MIC [1, 5] [µg/mL]","MIC [2, 6] [µg/mL]","MIC [3, 7] [µg/mL]","MIC [4, 8] [µg/mL]","MIC [1, 9] [µg/mL]",MIC ([2]; ESBL −ve E. coli ATCC25922) [µg/mL],MIC [4] [µg/mL],"MIC [3, 10] [µg/mL]"
C[C@@H](NC(=O)C(F)F)[C@H]1C(=O)N2C(C(=O)O)=C(S[C@@H]3CN[C@H](CNC(=O)[C@@H]4C[C@@H](N)CN4)C3)[C@H](C)[C@H]12 [Example 261],64,2,16,2,,,,
"C[C@@H](NC(=O)Cn1cnnn1)[C@H]1C(=O)N2C(C(=O)O)=C(S[C@@H]3CN[C@H](C(=O)N4CCC(CO)CC4)C3)[C@H](C)[C@H]12 [Example 423, (4R,5S,6R)-6-((R)-1-(2-(1H-tetrazol-1-yl)acetamido)ethyl)-3-((3S,5S)-5-(4-(hydroxymethyl)piperidine-1-carbonyl)pyrrolidin-3-ylthio)-4-methyl-7-oxo-1-azabicyclo[3.2.0]hept-2-ene-2-carboxylic acid]",32,0.5,2,8,,,,
C[C@@H](NC(=O)Cn1ccnn1)[C@H]1C(=O)N2C(C(=O)O)=C(S[C@@H]3CN[C@H](C(=O)N(C)C)C3)[C@H](C)[C@H]12 [Example 296],64,0.5,2,4,,,,
"C[C@@H](NC(=O)Cn1cnnn1)[C@H]1C(=O)N2C(C(=O)O)=C(S[C@@H]3CN[C@H](C(=O)N4CCC(CN)CC4)C3)[C@H](C)[C@H]12 [Example 404, (4R,5S,6R)-6-((R)-1-(2-(1H-tetrazol-1-yl)acetamido)ethyl)-3-((3S,5S)-5-(4-(aminomethyl)piperidine-1-carbanoyl)pyrrolidin-3-ylthio)-4-methyl-7-oxo-1-azabicyclo[3.2.0]hept-2-ene-2-carboxylic acid]",1,0.25,0.5,1,,,,
"C[C@@H](NC(=O)Cn1cnnn1)[C@H]1C(=O)N2C(C(=O)O)=C(SC3COC4(CNC4)C3)[C@H](C)[C@H]12 (single isomer, unassigned) [Example 557]",,,4,,16,0.125,4,
"C[C@@H](NC(=O)Cn1cnnn1)[C@H]1C(=O)N2C(C(=O)O)=C(S[C@@H]3CN[C@H](C(=O)N4CCN(C(=N)N)CC4)C3)[C@H](C)[C@H]12 [Example 367, (4R,5S,6R)-6-((R)-1-(2-(1H-tetrazol-1-yl)acetamido)ethyl)-3-((3S,5S)-5-(4-carbamimidoylpiperazine-1-carbonyl)pyrrolidin-3-ylthio)-4-methyl-7-oxo-1-azabicyclo[3.2.0]hept-2-ene-2-carboxylic acid]",1,0.25,2,2,,,,
"C[C@@H](NC(=O)CN1CCn2nnnc2C1)[C@H]1C(=O)N2C(C(=O)O)=C(S[C@@H]3CN[C@H](C(=O)N4CC[C@@H](N)C4)C3)[C@H](C)[C@H]12 [Example 390, (4R,5S,6R)-3-((3S,5S)-5-((R)-3-aminopyrrolidine-1-carbonyl)pyrrolidin-3-ylthio)-6-((R)-1-(2-(5,6-dihydrotetrazolo[1,5-a]pyrazin-7(8H)-yl)acetamido)ethyl)-4-methyl-7-oxo-1-azabicyclo[3.2.0]hept-2-ene-2-carboxylic acid]",128,1,16,4,,,,
"C[C@@H](NC(=O)Cn1cnnn1)[C@H]1C(=O)N2C(C(=O)O)=C(S[C@@H]3CN[C@H](C(=O)N4C[C@@H](O)C[C@H]4CN)C3)[C@H](C)[C@H]12 [Example 470, (4R,5S,6R)-6-((R)-1-(2-(1H-tetrazol-1-yl)acetamido)ethyl)-3-((3S,5S)-5-((2S,4S)-2-(aminomethyl)-4-hydroxypyrrolidine-1-carbonyl)pyrrolidin-3-ylthio)-4-methyl-7-oxo-1-azabicyclo[3.2.0]hept-2-ene-2-carboxylic acid]",4,0.5,2,4,,,,
"C[C@@H](NC(=O)Cn1nnnc1C(=O)O)[C@H]1C(=O)N2C(C(=O)O)=C(S[C@@H]3CN[C@H](C(=O)N4CC[C@@H](N)C4)C3)[C@H](C)[C@H]12 [Example 403, (4R,5S,6R)-3-((3S,5S)-5-((R)-3-aminopyrrolidine-1-carbonyl)pyrrolidin-3-ylthio)-6-((R)-1-(2-(5-carboxy-1H-tetrazol-1-yl)acetamido)ethyl)-4-methyl-7-oxo-1-azabicyclo[3.2.0]hept-2-ene-2-carboxylic acid]",16,0.5,8,4,,,,
"C[C@@H](NC(=O)Cn1cnnn1)[C@H]1C(=O)N2C(C(=O)O)=C(S[C@@H]3CN[C@H](C(=O)N4CC5CCCNC5C4)C3)[C@H](C)[C@H]12 (single isomer, unassigned) [Example 452]",2,0.25,1,2,,,,
"C[C@@H](NC(=O)Cn1cnnn1)[C@H]1C(=O)N2C(C(=O)O)=C(S[C@@H]3CN[C@H](C(=O)N4CCN(C[C@H](N)CN)CC4)C3)[C@H](C)[C@H]12 [Example 457, (4R,5S,6R)-6-((R)-1-(2-(1H-tetrazol-1-yl)acetamido)ethyl)-3-((3S,5S)-5-(4-((R)-2,3-diaminopropyl)piperazine-1-carbonyl)pyrrolidin-3-ylthio)-4-methyl-7-oxo-1-azabicyclo[3.2.0]hept-2-ene-2-carboxylic acid]",1,0.25,1,2,,,,
"CNCC(=O)N[C@H](C)[C@H]1C(=O)N2C(C(=O)O)=C(S[C@@H]3CN[C@H](C(=O)N4C[C@@H](O)[C@H](NC(=N)N)C4)C3)[C@H](C)[C@H]12 [Example 588, (4R,5S,6R)-3-((3S,5S)-5-((3R,4R)-3-guanidino-4-hydroxypyrrolidine-1-carbonyl)pyrrolidin-3-ylthio)-4-methyl-6-((R)-1-(2-(methylamino)acetamido)ethyl)-7-oxo-1-azabicyclo[3.2.0]hept-2-ene-2-carboxylic acid]",4,4,4,32,,,,
C[C@@H](NCC1CC1)[C@H]1C(=O)N2C(C(=O)O)=C(S[C@@H]3CN[C@H](C(=O)N(C)C)C3)[C@H](C)[C@H]12 [Example 293],> 128,32,128,128,,,,
"C[C@@H](NC(=O)Cn1cnnn1)[C@H]1C(=O)N2C(C(=O)O)=C(S[C@@H]3CN[C@H](C(=O)N4CC(N5CCNCC5)C4)C3)[C@H](C)[C@H]12 [Example 429, (4R,5S,6R)-6-((R)-1-(2-(1H-tetrazol-1-yl)acetamido)ethyl)-4-methyl-7-oxo-3-((3S,5S)-5-(3-(piperazin-1-yl)azetidine-1-carbonyl)pyrrolidin-3-ylthio)-1-azabicyclo[3.2.0]hept-2-ene-carboxylic acid]",2,0.25,2,4,,,,
"C[C@@H](NC(=O)Cn1cnnn1)[C@H]1C(=O)N2C(C(=O)O)=C(S[C@@H]3CN[C@H](C(=O)N4CC5CCNCC5C4)C3)[C@H](C)[C@H]12 (single isomer, unassigned) [Example 528]",,,,,1,0.25,4,1
"C[C@@H](NC(=O)Cn1cnnn1)[C@H]1C(=O)N2C(C(=O)O)=C(S[C@@H]3CN[C@H](C(=O)N4CCC(N)C(F)C4)C3)[C@H](C)[C@H]12 (stereo partly drawn) [Example 433, (4R,5S,6R)-6-((R)-1-(2-(1H-tetrazol-1-yl)acetamido)ethyl)-3-((3S,5S)-5-(4-amino-3-fluoropiperidine-1-carbonyl)pyrrolidin-3-ylthio)-4-methyl-7-oxo-1-azabicyclo[3.2.0]hept-2-ene-2-carboxylic acid]",,,,,1,0.25,2,1
C[C@@H](NC(=O)Cn1cnnn1)[C@H]1C(=O)N2C(C(=O)O)=C(SC3CN(C4=NCCS4)C3)[C@H](C)[C@@H]12 [Example 294],16,0.06,1,1,,,,
"C[C@@H](NS(=O)(=O)Cn1cnnn1)[C@H]1C(=O)N2C(C(=O)O)=C(S[C@@H]3CN[C@H](C(=O)N(C)C)C3)[C@H](C)[C@H]12 [Example 379, (4R,5S,6S)-6-((R)-1-((1H-tetrazol-1-yl)methylsulfonamido)ethyl)-3-((3S,5S)-5-(dimethylcarbamoyl)pyrrolidin-3-ylthio)-4-methyl-7-oxo-1-azabicyclo[3.2.0]hept-2-ene-2-carboxcylic acid]",> 128,0.5,,16,,,,16
"C[C@@H](NC(=O)CSC(F)F)[C@H]1C(=O)N2C(C(=O)O)=C(S[C@@H]3CN[C@H](C(=O)N4CC[C@@H](N)C4)C3)[C@H](C)[C@H]12 [Example 507, (4R,5S,6R)-3-((3S,5S)-5-((R)-3-aminopyrrolidine-1-carbonyl)pyrrolidin-3-ylthio)-6-((R)-1-(2-(difluoromethylthio)acetamido)ethyl)-4-methyl-7-oxo-1-azabicyclo[3.2.0]hept-2-ene-2-carboxylic acid]",64,1,8,2,,,,
"C[C@@H](NC(=O)Cn1nnc(N)n1)[C@H]1C(=O)N2C(C(=O)O)=C(S[C@@H]3CN[C@H](C(=O)N4CC[C@@H](N)C4)C3)[C@H](C)[C@H]12 [Example 316, (4R,5S,6R)-6-((R) - 1-(2-(5-amino-2H-tetrazol-2-yl)acetamido)ethyl)-3-((3S,5S)-5-((R)-3-aminopyrrolidine-1-carbonyl)pyrrolidin-3-ylthio)-4-methyl-7-oxo-1-azabicyclo[3.2.0]hept-2-ene-2-carboxylic acid]",16,0.25,16,4,,,,
